Laboratory results reported in PubChem BioAssay (NCI).
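Cells were grown in 96-well plates and exposed to each compound for 48 hours at five concentrations; endpoints were interpolated linearly between bracketing concentrations, or set to the highest concentration if not reached. The concentration for full growth arrest is given as TGI.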

What was measured:
Experiment in all cases: DTP human tumour cell line panel, 48 h
HOP-92 NSCLC = test system: HOP-92 NSCLC
HCT-15 colon = test system: HCT-15 colon
PC-3 prostate = test system: PC-3 prostate
U251 CNS = test system: U251 CNS
OVCAR-3 ovarian = test system: OVCAR-3 ovarian
NCI-H226 lung = test system: NCI-H226 lung
MCF7 breast = test system: MCF7 breast
HS 578T breast = test system: HS 578T breast
MDA-MB-435 = test system: MDA-MB-435
TK-10 renal = test system: TK-10 renal
HCT-116 colon = test system: HCT-116 colon
NCI-H522 lung = test system: NCI-H522 lung
SF-268 CNS = test system: SF-268 CNS
T-47D breast = test system: T-47D breast
SNB-19 CNS = test system: SNB-19 CNS
COLO 205 colon = test system: COLO 205 colon
MALME-3M melanoma = test system: MALME-3M melanoma
UACC-257 melanoma = test system: UACC-257 melanoma
SK-MEL-28 melanoma = test system: SK-MEL-28 melanoma
IGROV1 ovarian = test system: IGROV1 ovarian
M14 melanoma = test system: M14 melanoma
SF-295 CNS = test system: SF-295 CNS
LOX IMVI melanoma = test system: LOX IMVI melanoma
UACC-62 melanoma = test system: UACC-62 melanoma
CCRF-CEM leukemia = test system: CCRF-CEM leukemia
CAKI-1 renal = test system: CAKI-1 renal
OVCAR-5 ovarian = test system: OVCAR-5 ovarian
MDA-N = test system: MDA-N
DU-145 prostate = test system: DU-145 prostate
NCI/ADR-RES ovarian = test system: NCI/ADR-RES ovarian
SK-MEL-2 melanoma = test system: SK-MEL-2 melanoma
OVCAR-4 ovarian = test system: OVCAR-4 ovarian
SK-OV-3 ovarian = test system: SK-OV-3 ovarian
HT29 colon = test system: HT29 colon
HCC-2998 colon = test system: HCC-2998 colon
786-0 renal = test system: 786-0 renal
HOP-62 NSCLC = test system: HOP-62 NSCLC
MOLT-4 leukemia = test system: MOLT-4 leukemia
BT-549 breast = test system: BT-549 breast
NCI-H23 lung = test system: NCI-H23 lung
RPMI-8226 leukemia = test system: RPMI-8226 leukemia
EKVX NSCLC = test system: EKVX NSCLC
SN12C renal = test system: SN12C renal
SR leukemia = test system: SR leukemia
SW-620 colon = test system: SW-620 colon
SK-MEL-5 melanoma = test system: SK-MEL-5 melanoma
OVCAR-8 ovarian = test system: OVCAR-8 ovarian
A549 NSCLC = test system: A549 NSCLC
K-562 leukemia = test system: K-562 leukemia
UO-31 renal = test system: UO-31 renal
KM12 colon = test system: KM12 colon
SF-539 CNS = test system: SF-539 CNS
NCI-H460 lung = test system: NCI-H460 lung
ACHN renal = test system: ACHN renal
MDA-MB-231 breast = test system: MDA-MB-231 breast
RXF 393 renal = test system: RXF 393 renal

Structure (SMILES): c1ccc2c(c1)CCc1c-2n(CCN2CCOCC2)c2ccccc12
- TGI (HOP-92 NSCLC): 38.1 µM
- TGI (HCT-15 colon): > 100 µM
- TGI (PC-3 prostate): > 100 µM
- TGI (U251 CNS): > 100 µM
- TGI (OVCAR-3 ovarian): > 100 µM
- TGI (NCI-H226 lung): > 100 µM
- TGI (MCF7 breast): > 100 µM
- TGI (HS 578T breast): > 100 µM
- TGI (MDA-MB-435): > 100 µM
- TGI (TK-10 renal): > 100 µM
- TGI (HCT-116 colon): > 100 µM
- TGI (NCI-H522 lung): 28.6 µM
- TGI (SF-268 CNS): > 100 µM
- TGI (T-47D breast): > 100 µM
- TGI (SNB-19 CNS): > 100 µM
- TGI (COLO 205 colon): > 100 µM
- TGI (MALME-3M melanoma): 32.2 µM
- TGI (UACC-257 melanoma): > 100 µM
- TGI (SK-MEL-28 melanoma): > 100 µM
- TGI (IGROV1 ovarian): > 100 µM
- TGI (M14 melanoma): > 100 µM
- TGI (SF-295 CNS): > 100 µM
- TGI (LOX IMVI melanoma): > 100 µM
- TGI (UACC-62 melanoma): > 100 µM
- TGI (CCRF-CEM leukemia): 61.5 µM
- TGI (CAKI-1 renal): > 100 µM
- TGI (OVCAR-5 ovarian): > 100 µM
- TGI (MDA-N): > 100 µM
- TGI (DU-145 prostate): > 100 µM
- TGI (NCI/ADR-RES ovarian): > 100 µM
- TGI (SK-MEL-2 melanoma): 25.8 µM
- TGI (OVCAR-4 ovarian): > 100 µM
- TGI (SK-OV-3 ovarian): 82.9 µM
- TGI (HT29 colon): 25.9 µM
- TGI (HCC-2998 colon): > 100 µM
- TGI (786-0 renal): > 100 µM
- TGI (HOP-62 NSCLC): > 100 µM
- TGI (MOLT-4 leukemia): > 100 µM
- TGI (BT-549 breast): > 100 µM
- TGI (NCI-H23 lung): > 100 µM
- TGI (RPMI-8226 leukemia): > 100 µM
- TGI (EKVX NSCLC): > 100 µM
- TGI (SN12C renal): > 100 µM
- TGI (SR leukemia): 38.3 µM
- TGI (SW-620 colon): > 100 µM
- TGI (SK-MEL-5 melanoma): 51.2 µM
- TGI (OVCAR-8 ovarian): > 100 µM
- TGI (A549 NSCLC): > 100 µM
- TGI (K-562 leukemia): > 100 µM
- TGI (UO-31 renal): > 100 µM
- TGI (KM12 colon): 27.3 µM
- TGI (SF-539 CNS): > 100 µM
- TGI (NCI-H460 lung): 92.9 µM
- TGI (ACHN renal): > 100 µM
- TGI (MDA-MB-231 breast): > 100 µM

Structure (SMILES): Cc1c(NC(=O)CSC(=S)N2CCN(Cc3ccccc3)CC2)c(=O)n(-c2ccccc2)n1C
- TGI (HCT-15 colon): > 100 µM
- TGI (PC-3 prostate): > 100 µM
- TGI (U251 CNS): > 100 µM
- TGI (OVCAR-3 ovarian): > 100 µM
- TGI (NCI-H226 lung): > 100 µM
- TGI (MCF7 breast): > 100 µM
- TGI (HS 578T breast): > 100 µM
- TGI (MDA-MB-435): > 100 µM
- TGI (TK-10 renal): > 100 µM
- TGI (HCT-116 colon): > 100 µM
- TGI (NCI-H522 lung): > 100 µM
- TGI (SF-268 CNS): > 100 µM
- TGI (T-47D breast): > 100 µM
- TGI (SNB-19 CNS): > 100 µM
- TGI (COLO 205 colon): > 100 µM
- TGI (MALME-3M melanoma): > 100 µM
- TGI (UACC-257 melanoma): > 100 µM
- TGI (SK-MEL-28 melanoma): > 100 µM
- TGI (IGROV1 ovarian): > 100 µM
- TGI (M14 melanoma): > 100 µM
- TGI (SF-295 CNS): > 100 µM
- TGI (LOX IMVI melanoma): > 100 µM
- TGI (CCRF-CEM leukemia): > 100 µM
- TGI (CAKI-1 renal): > 100 µM
- TGI (OVCAR-5 ovarian): > 100 µM
- TGI (MDA-N): > 100 µM
- TGI (DU-145 prostate): > 100 µM
- TGI (NCI/ADR-RES ovarian): > 100 µM
- TGI (SK-MEL-2 melanoma): > 100 µM
- TGI (OVCAR-4 ovarian): > 100 µM
- TGI (SK-OV-3 ovarian): > 100 µM
- TGI (HT29 colon): > 100 µM
- TGI (HCC-2998 colon): > 100 µM
- TGI (786-0 renal): > 100 µM
- TGI (HOP-62 NSCLC): > 100 µM
- TGI (MOLT-4 leukemia): > 100 µM
- TGI (BT-549 breast): > 100 µM
- TGI (NCI-H23 lung): > 100 µM
- TGI (RPMI-8226 leukemia): > 100 µM
- TGI (EKVX NSCLC): > 100 µM
- TGI (SN12C renal): > 100 µM
- TGI (SR leukemia): > 100 µM
- TGI (RXF 393 renal): > 100 µM
- TGI (SW-620 colon): > 100 µM
- TGI (SK-MEL-5 melanoma): > 100 µM
- TGI (OVCAR-8 ovarian): > 100 µM
- TGI (A549 NSCLC): > 100 µM
- TGI (K-562 leukemia): > 100 µM
- TGI (UO-31 renal): > 100 µM
- TGI (KM12 colon): > 100 µM
- TGI (SF-539 CNS): > 100 µM
- TGI (NCI-H460 lung): > 100 µM
- TGI (ACHN renal): > 100 µM
- TGI (MDA-MB-231 breast): > 100 µM
